Results on 28 compounds are retold here after patent US6335339B1, “Triazine antiviral compounds” (Scriptgen Pharmaceuticals, Inc., priority 1998, dated 2002).

The term IC50 denotes the point on the concentration scale where inhibition reaches its midpoint.

The subject of the experiment is HBV εRNA. In words: εRNA/oligonucleotide hybridization inhibition assay with rRNA competitor. The note with it: for IC50: radiolabeled εRNA, 60-fold excess rRNA competitor; for Specificity: ratio RRE+rRNA IC50/εRNA+rRNA IC50, max = inactive in RRE assay. The format is binding, Hepatitis B virus. The method, boiled down:
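Inhibition of hybridization between 25 nM [32P]-εRNA and 100 nM biotinylated complementary oligonucleotide (50 mM Tris-HCl pH 7.5, 200 mM KCl, 5 mM MgCl2, 60 min, 25 °C), hybrids captured by streptavidin filter and counted. Titrations 0.1-200 μM with 60-fold excess rRNA; specificity = RRE+rRNA IC50/εRNA+rRNA IC50.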

Turning to `C(=NNc1nc(Nc2ccccc2)nc(N2CCCCC2)n1)c1ccccc1` [Compound 3], the 50% inhibitory concentration (IC50) was found to be 66.9 µM and the Specificity entry is listed as “max”.

For the compound `Cc1[nH]c2ccccc2c1C=NNc1nc(Nc2ccccc2)nc(N2CCOCC2)n1` [Compound 4], the IC50 stood at 16.3 µM and the Specificity result is listed as “max”.

Regarding `FC(F)(F)c1cccc(Nc2nc(Nc3cccc(Br)c3)nc(N3CCOCC3)n2)c1` [Compound 38], the IC50 was found to be 34.9 µM and the Specificity entry is on record as “max”.

For the compound `CCCCN(CCCC)c1nc(NN=Cc2c[nH]c3ccccc23)nc(Nc2ccc([N+](=O)[O-])cc2)n1` [Compound 39], the half-maximal inhibitory concentration (IC50) came out at 39.9 µM and the Specificity entry is given as “max”.

Take `Cc1ccc(Nc2nc(NN=Cc3ccc(Cl)c(Cl)c3)nc(Nc3ccccc3)n2)c(C)c1` [Compound 40]: the IC50 was determined as 21.9 µM and the Specificity entry is recorded as “max”.

With `O=[N+]([O-])c1ccc(Nc2nc(N/N=C/c3cccc(Cl)c3)nc(N3CCCCC3)n2)cc1` [Compound 41], the IC50 is 24.9 µM and the Specificity entry was “max”.

`Cc1ccc(Nc2nc(NN=Cc3ccc(Cl)cc3)nc(Nc3ccccc3)n2)c(C)c1` [Compound 42]: the half-maximal inhibitory concentration (IC50) was determined as 30 µM and the Specificity entry was “max”.

For `Brc1cc2c(cc1C=NNc1nc(NCc3ccccc3)nc(Nc3ccccc3)n1)OCO2` [Compound 43], the half-inhibitory concentration (IC50) was 30.1 µM and the Specificity result was “max”.

Take `COc1ccc(C=NNc2nc(Nc3ccc([N+](=O)[O-])cc3)nc(N3CCCCC3)n2)cc1` [Compound 44]: the half-inhibitory concentration (IC50) was found to be 35 µM and the Specificity result is on record as “max”.

Take `O=[N+]([O-])c1ccc(C=NNc2nc(Nc3ccccc3)nc(NC3CCCCC3)n2)cc1` [Compound 46]: the IC50 was 23.1 µM and the Specificity entry is “max”.

As to `Cc1ccc(Nc2nc(NN=Cc3cccc(Br)c3)nc(Nc3ccccc3)n2)c(C)c1` [Compound 49], the IC50 was determined as 35 µM and the Specificity entry was “max”.

As for `Cc1[nH]c2ccccc2c1C=NNc1nc(NCc2ccccc2)nc(Nc2ccccc2)n1` [Compound 50], the concentration for half-maximal inhibition (IC50) is 39.9 µM and the Specificity result is recorded as “max”.

Consider `Cc1ccc(Nc2nc(NN=Cc3ccc4c(c3)OCO4)nc(Nc3ccccc3)n2)c(C)c1` [Compound 51], for which the IC50 came to 39.9 µM and the Specificity result is recorded as “max”.

In the case of `O=[N+]([O-])c1cc(C=NNc2nc(Nc3ccccc3)nc(N3CCOCC3)n2)ccc1Cl` [Compound 52], the IC50 was found to be 66 µM and the Specificity result is “max”.

Take `Oc1ccc(Nc2nc(Nc3cccc(C(F)(F)F)c3)nc(N3CCOCC3)n2)cc1` [Compound 53]: the concentration for half-maximal inhibition (IC50) was determined as 70.1 µM and the Specificity result was “max”.

In the case of `CC(C)c1ccc(C=NNc2nc(Nc3ccc([N+](=O)[O-])cc3)nc(N3CCCCCC3)n2)cc1` [Compound 56], the IC50 is 42.1 µM and the Specificity result is given as “max”.

For `COc1ccc(C=NNc2nc(Nc3ccccc3)nc(Nc3ccc(C)cc3C)n2)c(OC)c1` [Compound 61], the IC50 was found to be 42.6 µM and the Specificity entry is reported as “max”.

Turning to `CC(C)c1ccc(C=NNc2nc(Nc3ccc([N+](=O)[O-])cc3)nc(N3CCCCC3)n2)cc1` [Compound 62], the IC50 worked out at 54.3 µM and the Specificity result was “max”.

With `CCN(CC)c1nc(N/N=C/c2ccc([N+](=O)[O-])cc2)nc(Nc2cc(C)ccc2C)n1` [Compound 63], the IC50 worked out at 69 µM and the Specificity entry is “max”.

Consider `CNc1nc(NN=Cc2ccccc2[N+](=O)[O-])nc(Nc2ccccc2)n1` [Compound 65], for which the IC50 amounted to 99.9 µM and the Specificity entry was “max”.

Turning to `CC(C)(C)Nc1nc(NCc2ccccc2)nc(NN=Cc2ccc3c(c2)OCO3)n1` [Compound 67], the 50% inhibitory concentration (IC50) turned out to be 47.7 µM and the Specificity result is recorded as “max”.

Consider `CCN(CC)c1nc(NN=Cc2ccc(F)cc2)nc(Nc2ccc([N+](=O)[O-])cc2)n1` [Compound 68], for which the IC50 stood at 33 µM and the Specificity result is reported as “max”.

Regarding `CCCCN(CCCC)c1nc(NN=C(C)c2ccccc2)nc(Nc2ccc([N+](=O)[O-])cc2)n1` [Compound 74], the IC50 worked out at 126 µM and the Specificity result is recorded as “max”.

For `CCN(CC)c1nc(NN=Cc2cc([N+](=O)[O-])ccc2OC)nc(Nc2cc(C)ccc2C)n1` [Compound 85], the concentration for half-maximal inhibition (IC50) was found to be 53.8 µM and the Specificity entry is given as “max”.

For `Cc1[nH]c2ccccc2c1C=NNc1nc(Nc2ccccc2)nc(N2CCCCC2)n1` [Compound 88], the IC50 stood at 11.7 µM and the Specificity came out at 80.2.

Take `C(=Cc1ccccc1)C=NNc1nc(NCc2ccccc2)nc(Nc2ccccc2)n1` [Compound 91]: the half-maximal inhibitory concentration (IC50) was 17.1 µM and the Specificity is 46.8.

Take `CC(C)(C)Nc1nc(NCc2ccccc2)nc(N/N=C/c2ccccc2F)n1` [Compound 93, 2-fluorobenzaldehyde N-[4-(benzylamino)-6-(tert-butylamino)-1,3,5-triazin-2-yl]hydrazone]: the IC50 came to 12.7 µM and the Specificity result is given as “max”.

Consider `COc1ccccc1C=NNc1nc(Nc2ccc([N+](=O)[O-])cc2)nc(Nc2ccc(C)c(C)c2)n1` [Compound 94], for which the IC50 was 12 µM and the Specificity was 20.8.
